From patent publication US20240158386A1, “BENZOXAZOLONE INHIBITORS OF INFLAMMASOMES” (ICAHN SCHOOL OF MEDICINE AT MOUNT SINAI, priority 2021, published 2024) come the findings set out here.

One experiment deals with T1, NLRC4 inflammasome (Mus musculus, UniProt Q3UP24).
T1 construct: endogenous in cells; host or cells: primary microglia from NLRP3 KO mice
Description: NLRC4 inflammasome activation assay: IL-1β release, microglia from NLRP3 KO mice, LPS and flagellin. As to conditions: 10 μM; microglia from NLRP3 KO mice, LPS and flagellin. Format: cell-based. On the procedure:
AIM2, NLRP7, and NLRC4 inflammasomes activation assays. […] AIM2 inflammasome activation was induced through the addition of 100 ng/ml LPS for 2 hours, followed by transfection of 1 μg poly(dA:dT) using Lipofectamine 2000 during 2 hours, following the manufacturer recommendations. NLRC4 was activated by treatment with 150 ng/ml LPS for 2 hours, before transfection of 1 μg flagellin during 2 hours, using lipofectamine 2000 as transfection reagent. Negative and positive controls were pre-treated with the same DMSO percentage as cells treated with the inhibitors. Negative controls were kept untreated after DMSO addition, while LPS-poly(dA:dT) or LPS-flagellin was added to positive controls for AIM2, and NLRC4 activation, respectively. For activation of the NLRP7 inflammasome different conditions were assessed: treatment of WT microglia cultures with 400 ng/ml fibroblast-stimulating lipopeptide-1 (fsl-1) for 7 hours, priming with 150 ng/ml LPS for 1 hour and treatment with 400 ng/ml fsl-1 for 7 hours, and priming with 150 ng/ml LPS and transfection of 400 ng/ml fsl-1 with lipofectamine. MCC950 was used as a negative control for NLRC4 and AIM-2 inhibition. Cells were pretreated with 5 μM MCC950 before LPS addition, and 2 hours later the NLRC4 and AIM-2 activation was induced through addition of their specific activators. Cell supernatants were collected for IL-1β measurement.
(§1) Cytokine quantification. IL-1β in cell supernatants and brain tissue samples—after the different treatment groups—was quantified using the Mouse IL-1 beta/IL-1F2 DuoSet ELISA kit (R&D systems), IL-6 in cell culture supernatant was measured through the Mouse IL-6 ELISA kit (ThermoFisher), TNF-α in cell culture supernatants was determined using the Mouse TNF-alpha DuoSet ELISA (R*D systems), and IL-18 in brain tissue was measured through the IL-18 Mouse ELISA Kit (Invitrogen) following the manufacturers' recommended protocol. IL-1β precursor and cleaved IL-1β in the FC of mice treated with vehicles, LPS, or C77-LPS was assessed by western blot. All samples were run in technical duplicates.

The test system of experiment [1] is ASC specks following NLRP3 activation. Description: ASC speck formation / ASC oligomerization in m-Cerulean ASC labeled macrophages. The following applies: 10 μM pretreatment, LPS and ATP, compared with DMSO-treated cells. Format: cell-based, murine. As for the experimental part: m-Cerulean ASC labeled macrophages. NLRP3 Knock Out immortalized murine macrophages, stably expressing m-Cerulean-ASC, and NLRP3-Flag were a kind donation of Prof. Eicke Latz, (Institute of Innate Immunity, University of Bonn, Germany). Murine macrophages were maintained in high glucose DMEM medium supplemented with 10% FBS, 1% sodium pyruvate, and passaged every 2-3 days, before reaching confluence.
For ASC speck formation evaluation, murine macrophages were seeded in 96 well SCREENSTAR black microplates with clear base, 24 hours before stimulation. Then, cells were incubated for 1 hour with different concentrations of the inhibitors, or with the same DMSO volume for positive and negative controls for NLRP3 activation—DMSO-LPS-ATP or only DMSO, respectively. 0.5 μM MCC950 was used as a positive control for inhibition of NLRP3-mediated ASC oligomerization. NLRP3 activation was induced through treatment with 250 ng/ml LPS for 2.5 hours, followed by addition of 4.5 mM ATP for 45 min. Cells were then fixed and counterstained in a single step, as previously described (Stutz, A. et al. ASC Speck Formation as a Readout for Inflammasome Activation. in The Inflammasome (eds. De Nardo, C. M. & Latz, E.) vol. 1040 91-101 (Humana Press, 2013).). For that, a stock solution of DRAQS in formaldehyde was used, being the final concentrations 1% formaldehyde and 2.5 μM DRAQ5.
ASC oligomerization determination. […] ASC specks in cells pretreated with C75, C77, C78, and C97, before NLRP3 activation (as above indicated), were visualized with a widefield Leica DMi8 fluorescence microscope, using the 20× objective. […] For image analysis and speck quantification, ImageJ was used https://imagej.nih.gov/ij/index.html. Speck and nuclei quantification was performed as previously described in Stutz et al. When required (overlapping nuclei), the watershed separation algorithm was used to separate the particles. […] The rate of speck positive cells was calculated by normalizing the number of speck positive cells to the number of nuclei. […]

The target in the next experiment is T2, NLRP3 inflammasome (Mus musculus, UniProt Q8R4B8).
T2 construct: endogenous in cells; host or cells: primary microglia from cortices of 2-3 day old WT mouse pups
Put plainly: NLRP3 inflammasome activation assay: IL-1β release by primary microglia after LPS and ATP. It counts as cell-based, murine. The following applies: for inhibition of IL-1β release upon NLRP3 activation: 100 μM compound; for inhibition of IL-1β release upon NLRP3 activation / IC50: microglia, LPS and ATP; for IC50: IL-1β release, nonlinear fit of dose-response, read-out: IC50; for remaining activity at 100 µM: microglia cultures pretreated with 100 μM compound before NLRP3 activation with LPS and ATP, read-out: % Residual activity (percentage of IL-1β, referred to control). As for the experimental part: Murine primary microglia. Mixed cortical cultures were prepared as previously described (Bronstein, R. et al. J. Vis. Exp. JoVE 50647 (2013) doi:10.3791/50647). Briefly, cortices from 2-3 days old, WT, or NLRP3 KO pups were isolated, digested, and seeded at a density of 8 cortices per 10 ml petri dish. Every three days, the medium was replaced by fresh culture medium (DMEM, 10% FBS, 1% penicillin-streptomycin). After three weeks, mixed glial cultures had reached confluence, and microglia cells were isolated by mild trypsinization as previously described (Saura, J. et al. Glia 44, 183-189 (2003)). In brief, cells were washed with culture medium without FBS and treated with a mixture of trypsin 0.25% (without EDTA) and DMEM-F12 medium in a 1:3 proportion. After an incubation period of approximately 40 min, an intact layer of mixed glial cells detached, leaving microglia attached firmly to the bottom of the Petri-dish. Pure microglia were then isolated by 15 min incubation with trypsin (0.05%)-EDTA at 37° C., followed by gentle shaking. Cells were counted and seeded at the desired density, typically 7.5·10^4 cells/well in 24 well-plates.
NLRP3 inflammasome activation assay. Primary microglia cultures were incubated with the compounds that inhibited IL-1β production in THP1 macrophages. Cells pretreated with 100 μM of the compounds—or with the same DMSO volume, in the case of control samples—were primed with 400 ng/ml LPS for 3 hours, and activated with 4.5 mM ATP for 45 minutes or […] nigericin for 1 hour. Dose-response curves were conducted by incubating microglia cultures with different concentrations of the selected compounds, ranging from 0.001 to 100 μM, 1 hour before NLRP3 activation with LPS and ATP. Supernatants were collected for IL-1β and toxicity assessments.
as §1

T2 sequence (Q8R4B8 whole entry): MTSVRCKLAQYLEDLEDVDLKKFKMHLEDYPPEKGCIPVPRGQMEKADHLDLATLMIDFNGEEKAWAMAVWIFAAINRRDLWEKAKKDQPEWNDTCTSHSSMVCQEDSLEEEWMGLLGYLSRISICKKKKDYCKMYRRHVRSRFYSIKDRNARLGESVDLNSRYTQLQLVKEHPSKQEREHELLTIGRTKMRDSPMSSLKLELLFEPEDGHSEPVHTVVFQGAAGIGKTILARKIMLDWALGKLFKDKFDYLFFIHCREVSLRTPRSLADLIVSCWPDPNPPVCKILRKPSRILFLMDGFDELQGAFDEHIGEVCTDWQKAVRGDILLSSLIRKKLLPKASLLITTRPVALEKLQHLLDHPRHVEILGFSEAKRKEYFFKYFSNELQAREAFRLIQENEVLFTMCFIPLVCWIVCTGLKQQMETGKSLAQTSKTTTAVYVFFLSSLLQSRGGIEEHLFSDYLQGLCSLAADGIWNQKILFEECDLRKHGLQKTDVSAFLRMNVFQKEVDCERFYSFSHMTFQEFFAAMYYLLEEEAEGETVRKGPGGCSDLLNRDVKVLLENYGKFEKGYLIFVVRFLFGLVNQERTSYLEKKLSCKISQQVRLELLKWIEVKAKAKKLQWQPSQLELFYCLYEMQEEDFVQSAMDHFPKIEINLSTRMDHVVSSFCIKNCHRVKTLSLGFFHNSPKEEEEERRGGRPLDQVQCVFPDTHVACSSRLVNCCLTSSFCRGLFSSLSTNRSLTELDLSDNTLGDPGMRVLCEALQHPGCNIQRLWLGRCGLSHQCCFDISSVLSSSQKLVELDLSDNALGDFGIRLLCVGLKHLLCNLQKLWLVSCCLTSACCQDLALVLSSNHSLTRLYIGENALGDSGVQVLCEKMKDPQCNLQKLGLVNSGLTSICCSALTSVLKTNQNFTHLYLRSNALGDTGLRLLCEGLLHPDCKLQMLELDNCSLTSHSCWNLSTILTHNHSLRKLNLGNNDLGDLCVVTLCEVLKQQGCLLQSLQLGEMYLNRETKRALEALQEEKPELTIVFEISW
T1 sequence (Q3UP24 whole entry): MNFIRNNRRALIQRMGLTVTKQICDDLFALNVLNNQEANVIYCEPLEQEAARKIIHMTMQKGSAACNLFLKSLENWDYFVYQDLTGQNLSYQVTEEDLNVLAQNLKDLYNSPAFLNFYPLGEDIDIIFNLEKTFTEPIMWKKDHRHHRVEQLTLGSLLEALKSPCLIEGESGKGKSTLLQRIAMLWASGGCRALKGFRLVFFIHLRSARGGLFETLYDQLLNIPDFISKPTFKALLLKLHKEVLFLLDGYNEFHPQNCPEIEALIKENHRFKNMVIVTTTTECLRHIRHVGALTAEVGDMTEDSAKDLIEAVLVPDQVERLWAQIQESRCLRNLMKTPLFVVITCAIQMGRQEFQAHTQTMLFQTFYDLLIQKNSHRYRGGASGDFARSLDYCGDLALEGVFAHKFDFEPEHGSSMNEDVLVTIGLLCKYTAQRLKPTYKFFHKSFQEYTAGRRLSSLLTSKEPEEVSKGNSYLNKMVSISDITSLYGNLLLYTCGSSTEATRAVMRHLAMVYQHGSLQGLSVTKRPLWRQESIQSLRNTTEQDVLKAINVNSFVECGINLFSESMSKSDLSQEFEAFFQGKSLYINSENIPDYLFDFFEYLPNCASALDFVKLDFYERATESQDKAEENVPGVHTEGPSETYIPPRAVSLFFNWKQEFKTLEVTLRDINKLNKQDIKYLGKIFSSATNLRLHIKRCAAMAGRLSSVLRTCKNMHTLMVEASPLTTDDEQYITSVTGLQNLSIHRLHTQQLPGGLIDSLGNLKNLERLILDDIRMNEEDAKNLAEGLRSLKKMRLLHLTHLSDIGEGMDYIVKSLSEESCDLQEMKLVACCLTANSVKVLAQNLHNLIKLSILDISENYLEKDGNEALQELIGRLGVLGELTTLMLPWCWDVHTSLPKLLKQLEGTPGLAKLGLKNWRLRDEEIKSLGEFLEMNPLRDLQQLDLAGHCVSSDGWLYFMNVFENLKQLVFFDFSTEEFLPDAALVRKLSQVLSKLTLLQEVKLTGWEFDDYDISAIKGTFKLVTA

Take `O=C(Cn1c(=O)oc2ccccc21)NCCn1cc(-c2ccoc2)cn1` [Compound C78, N-(2-(4-(furan-3-yl)-1H-pyrazol-1-yl)ethyl)-2-(2-oxobenzoidloxazol-3(2H)-yl)acetamide]: the “inhibition of NLRC4-mediated IL-1β production” value on NLRC4 inflammasome is “presented inhibitory power against the NLRC4 inflammasome”. For the same compound, the “rate of ASC speck positive cells” value in experiment [1] is “significantly reduced”. Moreover, on NLRP3 inflammasome, the “inhibition of IL-1β release upon NLRP3 activation” value is on record as “completely prevented IL-1β secretion”, the IC50 came out at 8.26 ± 1.16 µM and the remaining activity at 100 µM was found to be 0%.

As for `O=C(Cn1c(=O)oc2ccccc21)NCC(O)(c1ccoc1)c1ccco1` (stereo not shown) [Compound C75], the “inhibition of NLRC4-mediated IL-1β production” value at NLRC4 inflammasome was “presented inhibitory power against the NLRC4 inflammasome”. The “rate of ASC speck positive cells” value in experiment [1] is given as “significantly reduced”. Also, at NLRP3 inflammasome, the “inhibition of IL-1β release upon NLRP3 activation” value is listed as “completely prevented IL-1β secretion”, the IC50 stood at 9.24 ± 1.06 µM and the remaining activity at 100 µM was 0%.
